{
  "source": "paper PMC5218480",
  "about": "(PLoS ONE, 2017)",
  "system": "MV-4-11 cells",
  "test": "Gene expression microarray analysis (Affymetrix PrimeView) and GSEA",
  "format": "cell-based, human",
  "set-up": "RFU PODN (11730768_x_at) / Fold change /veh PODN (11730768_x_at) / RFU LINC00158 (11744669_a_at) / Fold change /veh LINC00158 (11744669_a_at) / RFU DUSP10 (11751237_a_at) / Fold change /veh DUSP10 (11751237_a_at) / RFU ID3 (11757404_x_at) / Fold change /veh ID3 (11757404_x_at) / RFU PLEKHG5 (11737974_s_at) / Fold change /veh PLEKHG5 (11737974_s_at) / RFU LRRC4B (11730491_at) / Fold change /veh LRRC4B (11730491_at) / RFU GIMAP4 (11747438_a_at) / Fold change /veh GIMAP4 (11747438_a_at) / RFU KRT8 (11758183_x_at) / Fold change /veh KRT8 (11758183_x_at) / RFU CNN1 (11734310_a_at) / Fold change /veh CNN1 (11734310_a_at) / RFU VPS37D (11726825_at) / Fold change /veh VPS37D (11726825_at) / RFU C10orf10 (11716522_x_at) / Fold change /veh C10orf10 (11716522_x_at) / RFU KIR2DL2 /// KIR2DL4 /// KIR2DL5A /// KIR2DL5B /// KIR2DS1 /// KIR2DS2 /// KIR2DS3 /// KIR2DS4 /// KIR3DL3 /// KIR3DL3 /// KIR3DS1 (11738374_at) / Fold change /veh KIR2DL2 /// KIR2DL4 /// KIR2DL5A /// KIR2DL5B /// KIR2DS1 /// KIR2DS2 /// KIR2DS3 /// KIR2DS4 /// KIR3DL3 /// KIR3DL3 /// KIR3DS1 (11738374_at) / RFU C1QL1 (11718748_at) / Fold change /veh C1QL1 (11718748_at) / RFU TMPRSS4 (11747572_a_at) / Fold change /veh TMPRSS4 (11747572_a_at) / RFU HAMP (11756126_x_at) / Fold change /veh HAMP (11756126_x_at) / RFU RNFT2 (11725882_a_at) / Fold change /veh RNFT2 (11725882_a_at) / RFU NR4A2 (11747474_a_at) / Fold change /veh NR4A2 (11747474_a_at) / RFU ABCC12 (11746883_a_at) / Fold change /veh ABCC12 (11746883_a_at) / RFU TMEM136 (11760407_x_at) / Fold change /veh TMEM136 (11760407_x_at) / RFU CLDN22 /// WWC2 (11732394_at) / Fold change /veh CLDN22 /// WWC2 (11732394_at) / RFU HLA-DPB1 (11760878_x_at) / Fold change /veh HLA-DPB1 (11760878_x_at) / RFU SPINT1 (11716480_a_at) / Fold change /veh SPINT1 (11716480_a_at) / RFU GAP43 (11754022_s_at) / Fold change /veh GAP43 (11754022_s_at) / RFU A4GNT (11735810_at) / Fold change /veh A4GNT (11735810_at) / RFU PRB3 (11715151_x_at) / Fold change /veh PRB3 (11715151_x_at) / RFU TUBB4B (11761932_at) / Fold change /veh TUBB4B (11761932_at) / RFU CAPN14 (11732068_a_at) / Fold change /veh CAPN14 (11732068_a_at) / RFU TMCC2 (11721928_a_at) / Fold change /veh TMCC2 (11721928_a_at) / RFU IRGQ (11745062_a_at) / Fold change /veh IRGQ (11745062_a_at) / RFU FAM174B (11720279_a_at) / Fold change /veh FAM174B (11720279_a_at) / RFU TMPRSS4 (11748680_a_at) / Fold change /veh TMPRSS4 (11748680_a_at) / RFU FAM212B (11763350_a_at) / Fold change /veh FAM212B (11763350_a_at) / RFU PLEKHG5 (11743358_a_at) / Fold change /veh PLEKHG5 (11743358_a_at) / RFU ZSCAN30 (11745921_a_at) / Fold change /veh ZSCAN30 (11745921_a_at) / RFU CMKLR1 (11741424_a_at) / Fold change /veh CMKLR1 (11741424_a_at) / RFU LOC101060620 /// MAPK8IP1 (11723275_at) / Fold change /veh LOC101060620 /// MAPK8IP1 (11723275_at) / RFU SPTSSB (11747773_x_at) / Fold change /veh SPTSSB (11747773_x_at) / RFU PRSS12 (11739890_at) / Fold change /veh PRSS12 (11739890_at) / RFU BIN1 (11741810_x_at) / Fold change /veh BIN1 (11741810_x_at) / RFU WNT11 (11732464_a_at) / Fold change /veh WNT11 (11732464_a_at) / RFU C10orf10 (11716521_a_at) / Fold change /veh C10orf10 (11716521_a_at) / RFU C5orf56 (11738089_at) / Fold change /veh C5orf56 (11738089_at) / RFU CYB561 (11721691_x_at) / Fold change /veh CYB561 (11721691_x_at) / RFU ANKRD19P (11752326_a_at) / Fold change /veh ANKRD19P (11752326_a_at) / RFU OR2T12 /// OR2T33 /// OR2T8 (11738714_s_at) / Fold change /veh OR2T12 /// OR2T33 /// OR2T8 (11738714_s_at) / RFU VCAN (11748164_a_at) / Fold change /veh VCAN (11748164_a_at) / RFU JSRP1 (11732532_at) / Fold change /veh JSRP1 (11732532_at) / RFU KRTAP10-11 (11738290_x_at) / Fold change /veh KRTAP10-11 (11738290_x_at) / RFU MYO3A (11730013_a_at) / Fold change /veh MYO3A (11730013_a_at) / RFU EBF3 (11725865_a_at) / Fold change /veh EBF3 (11725865_a_at) / RFU CAMK2N1 (11719241_x_at) / Fold change /veh CAMK2N1 (11719241_x_at) / RFU C5orf56 (11738088_a_at) / Fold change /veh C5orf56 (11738088_a_at) / RFU OLFML3 (11715873_a_at) / Fold change /veh OLFML3 (11715873_a_at) / RFU LOC100653217 /// NTM (11731650_a_at) / Fold change /veh LOC100653217 /// NTM (11731650_a_at) / RFU MAPK11 (11762145_a_at) / Fold change /veh MAPK11 (11762145_a_at) / RFU FIZ1 (11724087_x_at) / Fold change /veh FIZ1 (11724087_x_at) / RFU OASL (11726364_x_at) / Fold change /veh OASL (11726364_x_at) / RFU SOX15 (11748057_x_at) / Fold change /veh SOX15 (11748057_x_at) / RFU CD79A (11719716_a_at) / Fold change /veh CD79A (11719716_a_at) / RFU HIST1H1D (11736915_at) / Fold change /veh HIST1H1D (11736915_at) / RFU CASKIN2 (11723855_a_at) / Fold change /veh CASKIN2 (11723855_a_at) / RFU LOC730098 (11760151_x_at) / Fold change /veh LOC730098 (11760151_x_at) / RFU OR4N2 (11742367_at) / Fold change /veh OR4N2 (11742367_at) / RFU PRRT2 (11749266_a_at) / Fold change /veh PRRT2 (11749266_a_at) / RFU SNX32 (11753110_a_at) / Fold change /veh SNX32 (11753110_a_at) / RFU CDHR5 (11726645_a_at) / Fold change /veh CDHR5 (11726645_a_at) / RFU RCAN1 (11760418_a_at) / Fold change /veh RCAN1 (11760418_a_at) / RFU FAM167A (11723789_a_at) / Fold change /veh FAM167A (11723789_a_at) / RFU FAM26E (11764081_at) / Fold change /veh FAM26E (11764081_at) / RFU ISYNA1 (11749810_s_at) / Fold change /veh ISYNA1 (11749810_s_at) / RFU ACY1 (11761880_at) / Fold change /veh ACY1 (11761880_at) / RFU 11764098_at / Fold change /veh 11764098_at / RFU SAMD14 (11745864_x_at) / Fold change /veh SAMD14 (11745864_x_at) / RFU NPB (11741838_a_at) / Fold change /veh NPB (11741838_a_at) / RFU TMPRSS6 (11731388_a_at) / Fold change /veh TMPRSS6 (11731388_a_at) / RFU KRTAP10-2 (11738614_at) / Fold change /veh KRTAP10-2 (11738614_at) / RFU ARHGAP8 /// PRR5-ARHGAP8 (11727945_x_at) / Fold change /veh ARHGAP8 /// PRR5-ARHGAP8 (11727945_x_at) / RFU KRTAP5-7 /// NADSYN1 (11734609_at) / Fold change /veh KRTAP5-7 /// NADSYN1 (11734609_at) / RFU RASL12 (11751679_a_at) / Fold change /veh RASL12 (11751679_a_at) / RFU CDKN2B (11736163_a_at) / Fold change /veh CDKN2B (11736163_a_at) / RFU PRF1 (11729649_at) / Fold change /veh PRF1 (11729649_at) / RFU, ZNF638 /// ZNF638-IT1 / Fold change vs veh, ZNF638 /// ZNF638-IT1 / RFU, PANK3 / Fold change vs veh, PANK3 / RFU, SH3YL1 / Fold change vs veh, SH3YL1 / RFU, ZEB2 / Fold change vs veh, ZEB2 / RFU, NRIP1 / Fold change vs veh, NRIP1 / RFU, PTTG1IP / Fold change vs veh, PTTG1IP / RFU, CAPN2 / Fold change vs veh, CAPN2 / RFU, MED14 / Fold change vs veh, MED14 / RFU, SNORA58 / Fold change vs veh, SNORA58 / RFU, C1orf63 / Fold change vs veh, C1orf63 / RFU, LRRFIP1 / Fold change vs veh, LRRFIP1 / RFU, NDUFAF7 / Fold change vs veh, NDUFAF7 / RFU, SLC12A2 / Fold change vs veh, SLC12A2 / RFU, IBTK / Fold change vs veh, IBTK / RFU, ESF1 / Fold change vs veh, ESF1 / Fold change vs veh, TMEM50B / RFU, TAOK1 / Fold change vs veh, TAOK1 / RFU, ACBD3 / Fold change vs veh, ACBD3 / RFU, TMA16 / Fold change vs veh, TMA16 / RFU, RWDD3 / Fold change vs veh, RWDD3 / RFU, BCAT1 / Fold change vs veh, BCAT1 / RFU, EDEM3 / Fold change vs veh, EDEM3 / RFU, TMEM33 / Fold change vs veh, TMEM33 / RFU, WDR75 / Fold change vs veh, WDR75 / RFU, AHCTF1 / Fold change vs veh, AHCTF1 / RFU, TFRC / Fold change vs veh, TFRC / RFU, ZDHHC17 / Fold change vs veh, ZDHHC17 / RFU, NOM1 / Fold change vs veh, NOM1 / RFU, ARL8B / Fold change vs veh, ARL8B / RFU, ZBTB11 / Fold change vs veh, ZBTB11 / RFU, TAMM41 / Fold change vs veh, TAMM41 / RFU, KIAA1704 /// LOC100996395 / Fold change vs veh, KIAA1704 /// LOC100996395 / RFU, ING1 / Fold change vs veh, ING1 / RFU, TRMT61B / Fold change vs veh, TRMT61B / RFU, FUBP3 / Fold change vs veh, FUBP3 / RFU, TP53 / Fold change vs veh, TP53 / RFU, TNKS2 / Fold change vs veh, TNKS2 / RFU, ZFP14 / Fold change vs veh, ZFP14 / RFU, ACTR2 / Fold change vs veh, ACTR2 / RFU, PPP3R1 / Fold change vs veh, PPP3R1 / RFU, PIK3R1 / Fold change vs veh, PIK3R1 / RFU, HNRNPA1 / Fold change vs veh, HNRNPA1 / RFU, RNF170 / Fold change vs veh, RNF170 / RFU, ZNF28 / Fold change vs veh, ZNF28 / RFU, RNGTT / Fold change vs veh, RNGTT / RFU, OGT / Fold change vs veh, OGT / RFU, BRD1 / Fold change vs veh, BRD1 / RFU, MARS / Fold change vs veh, MARS / RFU, ZNF655 / Fold change vs veh, ZNF655 / RFU, FAHD1 / Fold change vs veh, FAHD1 / RFU, BDP1 / Fold change vs veh, BDP1 / RFU, LRRCC1 / Fold change vs veh, LRRCC1 / RFU, ARID1A / Fold change vs veh, ARID1A / RFU, ZNF146 / Fold change vs veh, ZNF146 / RFU, ZNF330 / Fold change vs veh, ZNF330 / RFU, GPN3 / Fold change vs veh, GPN3 / RFU, C9orf123 / Fold change vs veh, C9orf123 / RFU, N4BP2L2 / Fold change vs veh, N4BP2L2 / RFU, ARFIP1 / Fold change vs veh, ARFIP1 / RFU, FAM179B / Fold change vs veh, FAM179B / RFU, BCL10 / Fold change vs veh, BCL10 / RFU, UHRF1BP1L / Fold change vs veh, UHRF1BP1L / RFU, BET1 / Fold change vs veh, BET1 / RFU, CNOT2 / Fold change vs veh, CNOT2 / RFU, ZNF268 / Fold change vs veh, ZNF268 / Fold change vs veh, ZNF507 / RFU, DGCR2 / Fold change vs veh, DGCR2 / RFU, WDSUB1 / Fold change vs veh, WDSUB1 / Fold change vs veh, HSP90B1 /// MIR3652 / RFU, ADSS / Fold change vs veh, ADSS / RFU, GK / Fold change vs veh, GK / RFU, ZNF148 / Fold change vs veh, ZNF148 / RFU, TAF9 / Fold change vs veh, TAF9 / RFU, SLC1A5 / Fold change vs veh, SLC1A5 / RFU, SLMO2 / Fold change vs veh, SLMO2 / RFU, ABCC4 / Fold change vs veh, ABCC4 / RFU, LOC101060439 /// RAP1B / Fold change vs veh, LOC101060439 /// RAP1B / RFU, RFX7 / Fold change vs veh, RFX7 / RFU, GTPBP10 / Fold change vs veh, GTPBP10 / RFU, CNEP1R1 / Fold change vs veh, CNEP1R1 / RFU, BIVM-ERCC5 /// ERCC5 / Fold change vs veh, BIVM-ERCC5 /// ERCC5 / RFU, ILF3 / Fold change vs veh, ILF3 / RFU 11762660_at / Fold change /veh 11762660_at / RFU VCAN (11757783_s_at) / Fold change /veh VCAN (11757783_s_at) / RFU DDX43 (11728927_at) / Fold change /veh DDX43 (11728927_at) / RFU KRT8 (11758188_x_at) / Fold change /veh KRT8 (11758188_x_at) / RFU NKD1 (11759106_at) / Fold change /veh NKD1 (11759106_at) / RFU SRD5A1 (11742802_a_at) / Fold change /veh SRD5A1 (11742802_a_at) / RFU TPSAB1 /// TPSB2 (11721975_s_at) / Fold change /veh TPSAB1 /// TPSB2 (11721975_s_at) / RFU GSTM3 (11746129_a_at) / Fold change /veh GSTM3 (11746129_a_at) / RFU IL23R (11737362_x_at) / Fold change /veh IL23R (11737362_x_at) / RFU TMEM51 (11727254_a_at) / Fold change /veh TMEM51 (11727254_a_at) / RFU PIWIL2 (11732686_x_at) / Fold change /veh PIWIL2 (11732686_x_at) / RFU ORM1 (11744905_x_at) / Fold change /veh ORM1 (11744905_x_at) / RFU CCDC152 (11743942_at) / Fold change /veh CCDC152 (11743942_at) / RFU ECM1 (11717891_a_at) / Fold change /veh ECM1 (11717891_a_at) / RFU IL23R (11748794_a_at) / Fold change /veh IL23R (11748794_a_at) / RFU TNFAIP8L3 (11732012_x_at) / Fold change /veh TNFAIP8L3 (11732012_x_at) / RFU MBOAT4 (11741988_at) / Fold change /veh MBOAT4 (11741988_at) / RFU 11764193_at / Fold change /veh 11764193_at / RFU TMEM53 (11763286_at) / Fold change /veh TMEM53 (11763286_at) / RFU MAGEB2 (11727129_at) / Fold change /veh MAGEB2 (11727129_at) / RFU TMEM200A (11744735_a_at) / Fold change /veh TMEM200A (11744735_a_at) / RFU CCDC152 (11751479_a_at) / Fold change /veh CCDC152 (11751479_a_at) / RFU FAM211A (11726209_a_at) / Fold change /veh FAM211A (11726209_a_at) / RFU RGS16 (11746705_a_at) / Fold change /veh RGS16 (11746705_a_at) / RFU VCAN (11755009_s_at) / Fold change /veh VCAN (11755009_s_at) / RFU RHOB (11743442_s_at) / Fold change /veh RHOB (11743442_s_at) / RFU RGS16 (11720943_a_at) / Fold change /veh RGS16 (11720943_a_at) / RFU RGS16 (11720944_at) / Fold change /veh RGS16 (11720944_at) / RFU, VPS4B / Fold change vs veh, VPS4B / RFU, CREB1 / Fold change vs veh, CREB1 / RFU, DNAJC13 / Fold change vs veh, DNAJC13 / RFU, GNAQ / Fold change vs veh, GNAQ / RFU, CDK5R1 / Fold change vs veh, CDK5R1 / RFU, ZRANB3 / Fold change vs veh, ZRANB3 / RFU, CUL4A / Fold change vs veh, CUL4A / RFU, CCNY / Fold change vs veh, CCNY / RFU, UFL1 / Fold change vs veh, UFL1 / RFU, COG3 / Fold change vs veh, COG3 / RFU, DIAPH2 / Fold change vs veh, DIAPH2 / RFU, SKA2 / Fold change vs veh, SKA2 / RFU, AFF3 / Fold change vs veh, AFF3 / RFU, LMF1 / Fold change vs veh, LMF1 / RFU, IPO11 / Fold change vs veh, IPO11 / RFU, DFFB / Fold change vs veh, DFFB / RFU, FOXP1 / Fold change vs veh, FOXP1 / RFU, CARD8 / Fold change vs veh, CARD8 / RFU, STRN3 / Fold change vs veh, STRN3 / RFU, ADK / Fold change vs veh, ADK / RFU, RASSF2 / Fold change vs veh, RASSF2 / RFU, WIPF1 / Fold change vs veh, WIPF1 / RFU, LARP1B / Fold change vs veh, LARP1B / RFU, RASA1 / Fold change vs veh, RASA1 / RFU, RB1 / Fold change vs veh, RB1 / RFU, PPFIA1 / Fold change vs veh, PPFIA1 / RFU, MAT2A / Fold change vs veh, MAT2A / RFU, CCT5 / Fold change vs veh, CCT5 / RFU, WDR92 / Fold change vs veh, WDR92 / RFU, CUX1 / Fold change vs veh, CUX1 / RFU, TTC7A / Fold change vs veh, TTC7A / RFU, TMEM135 / Fold change vs veh, TMEM135 / RFU, DEPTOR / Fold change vs veh, DEPTOR / RFU, CPM / Fold change vs veh, CPM / RFU, DNAJB6 / Fold change vs veh, DNAJB6 / RFU, CACNA2D3 / Fold change vs veh, CACNA2D3 / RFU, DTX4 / Fold change vs veh, DTX4 / RFU, TFCP2 / Fold change vs veh, TFCP2 / RFU, GMCL1 /// GMCL1P1 / Fold change vs veh, GMCL1 /// GMCL1P1 / RFU, AEBP2 / Fold change vs veh, AEBP2 / RFU, SNHG1 /// SNORD22 /// SNORD25 /// SNORD26 /// SNORD27 /// SNORD28 /// SNORD29 /// SNORD31 / Fold change vs veh, SNHG1 /// SNORD22 /// SNORD25 /// SNORD26 /// SNORD27 /// SNORD28 /// SNORD29 /// SNORD31 / Fold change (Aza/veh), C12orf56 (ProbeSet 11735607_a_at) / Fold change (ACY-1035/veh), C12orf56 (ProbeSet 11735607_a_at) / Fold change (Aza/veh), FGFR1OP (ProbeSet 11751329_s_at) / Fold change (ACY-1035/veh), FGFR1OP (ProbeSet 11751329_s_at) / Fold change (Aza/veh), VPS36 (ProbeSet 11739960_a_at) / Fold change (ACY-1035/veh), VPS36 (ProbeSet 11739960_a_at) / RFU SYPL1 (11715823_x_at) / Fold change /veh SYPL1 (11715823_x_at) / RFU IGFBP7 (11715501_s_at) / Fold change /veh IGFBP7 (11715501_s_at) / RFU REEP3 (11722064_at) / Fold change /veh REEP3 (11722064_at) / RFU IGLL1 (11728026_x_at) / Fold change /veh IGLL1 (11728026_x_at): dose or concentration left out as unconfirmed",
  "details": "ProbeSet 11740528_a_at; LIST D",
  "data": [
    {"smiles": "Nc1ncn([C@@H]2O[C@H](CO)[C@@H](O)[C@H]2O)c(=O)n1", "note": "[azacitidine]", "values": [
      {"measurement": "Fold change vs veh, AFF3", "value": 0.47}
    ]}
  ]
}
